# Measurements from PMC8879074, “A Novel Small Molecular Prostaglandin Receptor EP4 Antagonist, L001, Suppresses Pancreatic Cancer Metastasis” (Molecules, 2022).
# Columns and labels:
# Pan02 cells [1] = test: Wound healing assay, Pan02; type: cell-based, murine; conditions: 0.1 μM PGE2, 24 h, dose-dependent
# Experimental: The wound healing assay was performed according to a standard protocol as described before. Briefly, Pan02 and BxPC-3 cells were grown as a confluent monolayer in 12-well plates (Corning, Corning, NY, USA) overnight and starved with serum-free medium for 6 h. The monolayer cells were disrupted with a P100 micropipette tip (JET BIOFIL, Guangzhou, China) and rinsed with PBS to remove detached cells. Medium containing different concentrations of compounds was added subsequently. After 24 h, treated cells were stained with 2 μM calcein-AM (Yeasen, Shanghai, China) for 20 min and washed with PBS. Photos were taken of the area in the scraped zone of each dish at 100× magnification by using an inverted fluorescent microscope (OLYMPUS, Tokyo, Japan).
# [2] = test system: YAP, CYR61, CTGF, Vimentin, Snail, E-cadherin mRNA in BxPC-3 cells; test: Real-time qPCR of YAP, YAP target genes and EMT markers, BxPC-3; type: cell-based, human; conditions: 12 h
# Experimental: Total RNA was extracted from cells using TRIzol reagent. The cDNA was synthesized by RT-PCR kit (Vazyme Biotech, Nanjing, China). The band intensity was determined by the gel image analysis system (Bio-Rad, Hercules, CA, USA). SYBR Green-based qPCR (Yeason, Shanghai, China) was conducted subsequently. Relative mRNA levels of target genes were normalized with β-actin. The sequences of primers are listed in Supplementary Table S1. The raw data are listed in Supplementary Table S2.
# Pan02 cells [3] = test: Transwell migration assay, Pan02; type: cell-based, murine; conditions: Pan02; with PGE2; 24 h
# Experimental: The transwell assay was conducted as described previously, using 8 μm pore transwell inserts (Corning, NY, USA). Cells were suspended in serum-free DMEM and seeded into upper chambers at appropriate density. The bottom chamber was filled with DMEM supplemented with 10% fetal bovine serum and indicated concentrations of PGE2. The compounds were added in both upper and bottom chambers. […] Migrated cells were counted and quantified using image J.
structure (smiles),measurement,setting,value
C[C@H](NC(=O)c1c(Cc2cccc(C(F)(F)F)c2)sc2c1CCOC2)c1ccc(C(=O)O)cc1 [L001],PGE2-triggered wound closure,Pan02 cells [1],significantly blocked
same,PGE2-aroused upregulation of mRNA levels of Vimentin and Snail,[2],remarkably abrogated
same,PGE2-mediated downregulation of E-cadherin's expression,[2],reversed
same,"mRNA expression levels of YAP, CYR61 and CTGF induced by PGE2, in comparison with E7046","[2]; PGE2 0.1 μM, compound 10 μM",stronger reductions
same,migrated cells in the lower layer of the transwell,Pan02 cells [3],reduced migrated cells
